A word on the viability: it is a read-out of living cells in per cent, often relative to untreated cells.

Read-outs that look alike come from different tables or passages of the source.

This is an account of results in publication PMC5400620, “Preclinical therapeutic efficacy of a novel blood-brain barrier-penetrant dual PI3K/mTOR inhibitor with preferential response in PI3K/PTEN mutant glioma” (Oncotarget, 2017).

For assay [1], the target named is T1, never-in-mitosis gene a (NIMA)-related kinase 2 (NEK2) (Homo sapiens, UniProt P51955).
T1 sequence (P51955 1-445): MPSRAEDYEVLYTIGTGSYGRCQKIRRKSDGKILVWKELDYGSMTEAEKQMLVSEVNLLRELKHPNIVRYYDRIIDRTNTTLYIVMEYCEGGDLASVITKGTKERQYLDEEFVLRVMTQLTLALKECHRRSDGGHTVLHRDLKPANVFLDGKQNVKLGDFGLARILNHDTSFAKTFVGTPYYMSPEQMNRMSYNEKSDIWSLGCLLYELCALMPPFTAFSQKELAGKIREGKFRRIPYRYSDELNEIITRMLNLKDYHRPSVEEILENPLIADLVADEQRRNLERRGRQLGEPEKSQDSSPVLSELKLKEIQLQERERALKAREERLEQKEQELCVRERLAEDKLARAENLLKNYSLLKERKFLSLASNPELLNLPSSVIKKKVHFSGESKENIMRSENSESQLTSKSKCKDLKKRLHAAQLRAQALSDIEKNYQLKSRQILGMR
The assay can be described thus: kinase panel, direct measurement of substrate phosphorylation, NEK2. In kind it is biochemical. The note with it: panel of 227 kinases; test concentration not given. The procedure: (§1) DS7423 inhibits PI3K/mTOR activity likely binding to the ATP binding cleft of these enzymes and was tested against class I PI3K and other kinases using an HTRF assay format and direct measurement of substrate phosphorylation, respectively.

The target of assay [2] is p110α (Homo sapiens, UniProt P42336). As to the kind of experiment: class I PI3K HTRF assay, p110α. In kind it is biochemical. The procedure:
as §1
On the technique in general: TR-FRET usually uses a lanthanide donor and a delayed reading to cut background.

Assay [3] deals with glioma cell lines and GICs. The assay can be described thus: CellTiter-Blue cell viability assay, 72 hours. The note with it: Homo sapiens. The class given is cell-based. As to the method:
To determine the cytotoxicity of DS in GBM cells and GICs in vitro, we used a colorimetric […] assay. […] To investigate the role of PI3K/PTEN, we expressed PTEN in PTEN-mutant U87 glioma cells.
A panel of GIC lines was treated with various concentrations of DS. Cells were treated with increasing concentrations of DS in triplicate wells for 72 hours, and cell viability was assessed by a CellTiter-Blue assay. The results shown are from a single experiment with three independent replicates. The graph depicts cell viability at 72 hours. Cell viability in the vehicle control was considered to be 100%.
Nine well characterized GBM cell lines and 22 patient-derived GIC lines (provided by Drs. Frederick. F. Lang and Erik. P. Sulman, Brain Tumor center, M. D. Anderson Cancer Center) with various P53, PIK3CA, and PTEN statuses were used for this study. GBM cells were maintained as monolayer cultures and GICs were cultured as GBM neurospheres in DMEM/F12 medium containing B27 supplement (Invitrogen, Grand Island, NY) and basic fibroblast growth factor, and epidermal growth factor (20 ng/ml each).
The antiproliferative effect of DS on cells growing in culture was determined using the CellTiter-Blue (Promega, Madison, WI) viability assay. […]

The subject of assay [4] is Akt phosphorylation. The assay can be described thus: Western blot of PI3K signaling proteins in glioma cells. To be noted: 200 nM DS. In kind it is cell-based, human. The procedure: The levels of PI3K/mTOR signaling proteins, including pAkt, pS6 and P4EBP1 decreased in a dose- and time-dependent manner in all tested glioma cells (Figure 2A and 2B) as well as in the glioma tumor-initiating cell line GSC11 (Figure 2A and 2B). DS suppression of pAkt caused subsequent effects on Akt effectors such as 4EBP1 and S6 at 200-nM concentrations, and the maximum effects on Akt phosphorylation were observed 8 hours after 200 nM DS treatment.
Figure 2 DS7423 suppresses the PI3K signaling pathway in a dose- or time-dependent manner A. and B. Western blotting was performed to analyze the cellular protein levels of PI3K signaling proteins in U87 and LN229 glioma cells and GSC11 GICs. Cells were treated with the indicated doses of DS7423 for the indicated time intervals. DS7423 inhibited phosphorylation of the PI3K signaling components pAKT, pS6, and p4EBP1 in a time-dependent manner. D. Cells treated with the indicated doses of DS7423 for 24 hours. DS7423 inhibited phosphorylation of the PI3K signaling components pAKT, pS6, and p4EBP1 in a dose-dependent manner.
Cells were incubated with DS and then harvested and extracts were prepared for immunoblotting analysis. […]
(Immunoblotting shows a protein as a band on a membrane.)

Assay [5] deals with p110γ (Homo sapiens, UniProt P48736). The assay can be described thus: class I PI3K HTRF assay, p110γ. The class given is biochemical. The procedure:
as §1

Assay [6] has as its system LN229. The assay can be described thus: LN229 intracranial model efficacy. To be noted: LN229 tumor-bearing mice, PTEN wild type. The class given is in vivo. As to the method: We studied the efficacy of DS in 2 intracranial tumor models; the U87 glioma cell line and the GSC11 glioma initiating cell line are both PTEN mutant and GSC-11 is PIK3CA mutant cells. The median survival time of the U87 tumor-bearing control mice (i.e., those injected with methylcellulose only) was 30 days, whereas the median survival time of the U87 tumor-bearing mice orally treated with 6 mg/kg of DS was 46 days (Figure 4A; P=0.025). The median survival of the GSC11 tumor-bearing mice orally treated with 6 mg/kg of DS was 61 days (Figure 4B; P=0.014) compared with 47 days for the control-treated mice. The in vivo therapeutic efficacy of DS was assessed by plotting the Kaplan-Meier survival curves of the animals, and group data were compared using the log-rank test (Figure 4A and 4B). […] We also studied LN229 a PTEN wild type cell line to study the efficacy of DS in intracranial model.

Assay [7] concerns glioma cell lines U87 and U251. As to the kind of experiment: cell viability with DS, TMZ and the combination. The class given is cell-based. The note with it: Homo sapiens, U-251, TMZ 200 μM, DS 200 nM, alone or combined. As to the method:
To investigate the ability of DS to modify the response of glioma cells to TMZ treatment, we evaluated the effects of TMZ (200 μM) alone, DS (200 nM) alone, and a combination of both TMZ and DS on the viability of the glioma cell lines U87 and U251 (Figure 5A).
The antiproliferative effect of DS on cells growing in culture was determined using the CellTiter-Blue (Promega, Madison, WI) viability assay. The mean drug concentration required to inhibit cell proliferation by 50% (IC50) compared with vehicle-treated controls was calculated using CalcuSyn Version 2.0 software (Great ShelfordCambridge, United Kingdom).

Assay [8] concerns the target p110δ (Homo sapiens, UniProt O00329). As to the kind of experiment: class I PI3K HTRF assay, p110δ. The class given is biochemical. The procedure: as §1

p110δ, sequence (O00329 whole entry): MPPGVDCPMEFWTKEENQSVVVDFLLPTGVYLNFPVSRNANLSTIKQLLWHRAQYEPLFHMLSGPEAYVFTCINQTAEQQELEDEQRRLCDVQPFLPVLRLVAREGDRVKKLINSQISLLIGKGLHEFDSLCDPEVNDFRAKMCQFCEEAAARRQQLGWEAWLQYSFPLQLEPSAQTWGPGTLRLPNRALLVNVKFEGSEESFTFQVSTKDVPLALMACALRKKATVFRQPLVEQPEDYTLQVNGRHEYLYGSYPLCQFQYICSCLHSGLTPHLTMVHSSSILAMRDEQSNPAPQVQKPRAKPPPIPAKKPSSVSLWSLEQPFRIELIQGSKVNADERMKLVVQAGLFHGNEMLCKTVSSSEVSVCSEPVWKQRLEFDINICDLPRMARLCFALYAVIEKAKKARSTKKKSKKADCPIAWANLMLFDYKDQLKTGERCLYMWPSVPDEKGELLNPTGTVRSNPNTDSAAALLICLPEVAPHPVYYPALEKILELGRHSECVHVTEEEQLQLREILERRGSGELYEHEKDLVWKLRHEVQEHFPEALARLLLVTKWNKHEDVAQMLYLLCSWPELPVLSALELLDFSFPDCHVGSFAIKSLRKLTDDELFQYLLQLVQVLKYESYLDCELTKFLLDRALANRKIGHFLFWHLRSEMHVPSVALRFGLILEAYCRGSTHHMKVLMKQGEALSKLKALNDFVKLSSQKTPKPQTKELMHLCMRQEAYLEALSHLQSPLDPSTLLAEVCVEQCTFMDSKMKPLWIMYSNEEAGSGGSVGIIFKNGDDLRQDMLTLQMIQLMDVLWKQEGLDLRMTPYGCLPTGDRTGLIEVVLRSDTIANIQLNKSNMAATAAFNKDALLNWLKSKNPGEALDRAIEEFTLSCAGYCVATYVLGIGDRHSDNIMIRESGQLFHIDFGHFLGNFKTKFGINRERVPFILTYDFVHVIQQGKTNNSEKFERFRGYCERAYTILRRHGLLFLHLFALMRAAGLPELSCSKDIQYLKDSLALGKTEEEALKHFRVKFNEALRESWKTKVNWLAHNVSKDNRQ
p110δ, sequence (P27986 whole entry partner): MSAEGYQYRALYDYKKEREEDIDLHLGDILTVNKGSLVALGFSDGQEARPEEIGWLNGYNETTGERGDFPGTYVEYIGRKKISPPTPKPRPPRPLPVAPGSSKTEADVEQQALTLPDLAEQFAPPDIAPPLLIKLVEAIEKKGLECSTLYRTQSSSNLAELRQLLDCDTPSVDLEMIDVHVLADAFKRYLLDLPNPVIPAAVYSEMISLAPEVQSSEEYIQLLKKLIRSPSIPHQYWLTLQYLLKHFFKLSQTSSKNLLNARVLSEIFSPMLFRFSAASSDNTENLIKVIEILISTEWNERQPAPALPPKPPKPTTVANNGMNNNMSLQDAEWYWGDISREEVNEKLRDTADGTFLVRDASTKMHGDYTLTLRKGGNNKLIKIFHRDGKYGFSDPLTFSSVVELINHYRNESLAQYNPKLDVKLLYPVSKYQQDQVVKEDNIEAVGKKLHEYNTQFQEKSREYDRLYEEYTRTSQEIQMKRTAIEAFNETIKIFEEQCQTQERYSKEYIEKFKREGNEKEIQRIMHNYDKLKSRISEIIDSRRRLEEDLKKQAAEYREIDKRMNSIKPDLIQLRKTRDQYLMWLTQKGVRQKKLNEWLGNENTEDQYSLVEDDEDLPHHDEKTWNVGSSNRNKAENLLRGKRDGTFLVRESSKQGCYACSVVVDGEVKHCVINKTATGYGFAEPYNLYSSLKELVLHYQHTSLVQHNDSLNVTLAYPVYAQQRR
p110γ, sequence (P48736 whole entry): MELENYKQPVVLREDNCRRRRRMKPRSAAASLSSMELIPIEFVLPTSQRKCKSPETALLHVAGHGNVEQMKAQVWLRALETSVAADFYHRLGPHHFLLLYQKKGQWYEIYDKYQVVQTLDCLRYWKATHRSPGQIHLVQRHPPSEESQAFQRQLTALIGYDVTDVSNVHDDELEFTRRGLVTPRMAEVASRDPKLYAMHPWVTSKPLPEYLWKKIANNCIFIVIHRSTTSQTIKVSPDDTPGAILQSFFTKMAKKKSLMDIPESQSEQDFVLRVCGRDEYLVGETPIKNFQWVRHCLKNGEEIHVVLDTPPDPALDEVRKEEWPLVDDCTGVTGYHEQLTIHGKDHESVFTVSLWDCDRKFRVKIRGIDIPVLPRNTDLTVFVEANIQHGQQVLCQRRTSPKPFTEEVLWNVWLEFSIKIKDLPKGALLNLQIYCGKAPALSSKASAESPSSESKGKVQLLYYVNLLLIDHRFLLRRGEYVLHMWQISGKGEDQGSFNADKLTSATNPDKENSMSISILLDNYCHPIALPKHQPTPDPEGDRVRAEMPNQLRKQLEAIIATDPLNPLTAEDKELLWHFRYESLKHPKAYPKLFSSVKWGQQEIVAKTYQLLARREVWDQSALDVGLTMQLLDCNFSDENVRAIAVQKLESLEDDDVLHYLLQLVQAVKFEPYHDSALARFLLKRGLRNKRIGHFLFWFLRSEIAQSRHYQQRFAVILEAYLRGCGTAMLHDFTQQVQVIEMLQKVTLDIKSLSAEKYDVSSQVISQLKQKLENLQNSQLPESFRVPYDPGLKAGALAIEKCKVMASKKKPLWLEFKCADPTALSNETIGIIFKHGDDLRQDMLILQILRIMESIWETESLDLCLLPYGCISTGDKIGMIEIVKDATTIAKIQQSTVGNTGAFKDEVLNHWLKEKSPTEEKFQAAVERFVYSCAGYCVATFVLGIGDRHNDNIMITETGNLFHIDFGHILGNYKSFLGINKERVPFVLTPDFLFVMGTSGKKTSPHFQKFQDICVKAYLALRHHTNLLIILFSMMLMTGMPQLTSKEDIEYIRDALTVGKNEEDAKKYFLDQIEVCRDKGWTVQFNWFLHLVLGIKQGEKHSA
p110α, sequence (P42336 whole entry): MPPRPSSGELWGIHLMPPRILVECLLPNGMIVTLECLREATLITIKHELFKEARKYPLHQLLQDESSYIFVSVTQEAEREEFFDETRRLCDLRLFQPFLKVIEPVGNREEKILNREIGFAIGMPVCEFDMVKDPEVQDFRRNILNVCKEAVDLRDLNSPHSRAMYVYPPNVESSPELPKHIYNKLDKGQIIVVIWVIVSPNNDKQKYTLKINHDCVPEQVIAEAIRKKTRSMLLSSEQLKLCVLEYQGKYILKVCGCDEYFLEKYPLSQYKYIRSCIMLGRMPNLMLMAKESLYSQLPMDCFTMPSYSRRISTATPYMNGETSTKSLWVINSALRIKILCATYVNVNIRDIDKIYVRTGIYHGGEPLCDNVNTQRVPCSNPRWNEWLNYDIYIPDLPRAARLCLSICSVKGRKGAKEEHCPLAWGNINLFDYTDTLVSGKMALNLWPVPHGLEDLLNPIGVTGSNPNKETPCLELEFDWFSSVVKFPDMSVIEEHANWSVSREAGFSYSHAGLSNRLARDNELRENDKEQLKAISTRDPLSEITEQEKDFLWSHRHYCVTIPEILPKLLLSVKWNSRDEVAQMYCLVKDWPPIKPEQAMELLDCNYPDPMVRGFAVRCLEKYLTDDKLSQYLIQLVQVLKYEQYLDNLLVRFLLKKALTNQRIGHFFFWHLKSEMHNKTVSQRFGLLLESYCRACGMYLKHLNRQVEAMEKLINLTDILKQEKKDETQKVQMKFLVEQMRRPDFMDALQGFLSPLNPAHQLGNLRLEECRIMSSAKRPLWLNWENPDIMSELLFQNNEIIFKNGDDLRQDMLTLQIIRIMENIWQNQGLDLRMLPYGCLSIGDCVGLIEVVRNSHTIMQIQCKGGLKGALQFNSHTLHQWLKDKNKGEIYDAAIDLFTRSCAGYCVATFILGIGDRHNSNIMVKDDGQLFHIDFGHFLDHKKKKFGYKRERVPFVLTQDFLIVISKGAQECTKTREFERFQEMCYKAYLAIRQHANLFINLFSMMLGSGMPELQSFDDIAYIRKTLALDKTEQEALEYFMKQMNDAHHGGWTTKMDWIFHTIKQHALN
p110α, sequence (P27986 whole entry partner): as the sequence (P27986 whole entry partner) above

Turning to `CC(=O)N1CCN(c2nc3c(N4CCOCC4)nc(-c4cnc(N)nc4)nc3n2CC(F)(F)F)C[C@H]1C` [DS, 1-{(2R)-4-[2-(2-Aminopyrimidin-5-yl)-6-(morpholin-4-yl)-9-(2,2,2-trifluoroethyl)-9H-purin-8-yl]-2-methylpiperazin-1-yl}ethan-1-one], the “inhibition of NEK2” value in assay [1] was “greater than 50%”. For the same compound, the IC50 in assay [2] was 0.017 µM; in assay [3] (Glioma cell, GBM cells and GICs, 72 hours exposure, read-out: half maximal inhibitory concentration range of cells considered sensitive) it was 0.15 to 0.265 µM; in assay [3] (9 glioma cell lines and 22 GIC lines, 72 hours, read-out: mean 50% inhibitory concentration, growth of glioma tumor cell lines and GICs) it was below 0.25 µM; in assay [5], 0.249 µM; in assay [8] it was 0.262 µM. Further, the “time of maximum effects on Akt phosphorylation” value in assay [4] is 8 h. Further, in assay [6], the “effect on median survival” value is “no effect on median survival”. In addition, the viability at 0.2 µM in assay [7] stood at 63%.
